# From US9296698B2, “Amino heteroaryl compounds as beta-secretase modulators and methods of use” (Amgen Inc., priority 2009, dated 2016)
# Where two headings read alike, the source gives them in different places.
# Tests used:
# [1] = target: BACE 1 (Beta Secretase enzyme) (Homo sapiens, UniProt P56817); assay: In vitro enzymatic BACE FRET assay; assay type: biochemical
# Method in brief: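 BACE activity read by FRET: peptide substrate (50 nM) carrying fluorophore and quencher across the cleavage site, incubated one hour in 0.05 M acetate pH 4.2, 10% DMSO final, 100 uM genapol. Tris addition raises pH to neutrality to stop the reaction before fluorescence is read.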
# [2] = tested on: Aβ40 in conditioned medium of cells stably expressing Amyloid Precursor Protein (APP); assay: In vitro BACE cell-based assay (HEK cell assay), Aβ40 sandwich ELISA
# Method in brief: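 Cells stably expressing APP received 10-point compound dilutions (top 100 μM or 10 μM; 0.1% DMSO) for 24 h. Secreted Aβ40 was quantified by sandwich ELISA (pAb40 capture, biotinylated 6E10 detection, europium time-resolved fluorescence). IC50 was derived from percent inhibition versus concentration.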
# [3] = IC50 range symbols, Table 1, read-out: BACE 1 FRET assay
# [4] = Homo sapiens, HEK293, 24 h, IC50 range symbols, Table 1, Aβ40, 24 h incubation, read-out: HEK cell assay
# [5] = bound stated, read-out: IC50 value in the FRET BACE enzyme assay
# [6] = Homo sapiens, HEK293, bound stated in text, read-out: IC50 value in the BACE cell-based in-vitro assay
# [7] = IC50 range symbols, Table 1, Aβ40, 24 h incubation, read-out: HEK cell assay
# Sequence of BACE 1 (Beta Secretase enzyme) (P56817 46-501, species assumed): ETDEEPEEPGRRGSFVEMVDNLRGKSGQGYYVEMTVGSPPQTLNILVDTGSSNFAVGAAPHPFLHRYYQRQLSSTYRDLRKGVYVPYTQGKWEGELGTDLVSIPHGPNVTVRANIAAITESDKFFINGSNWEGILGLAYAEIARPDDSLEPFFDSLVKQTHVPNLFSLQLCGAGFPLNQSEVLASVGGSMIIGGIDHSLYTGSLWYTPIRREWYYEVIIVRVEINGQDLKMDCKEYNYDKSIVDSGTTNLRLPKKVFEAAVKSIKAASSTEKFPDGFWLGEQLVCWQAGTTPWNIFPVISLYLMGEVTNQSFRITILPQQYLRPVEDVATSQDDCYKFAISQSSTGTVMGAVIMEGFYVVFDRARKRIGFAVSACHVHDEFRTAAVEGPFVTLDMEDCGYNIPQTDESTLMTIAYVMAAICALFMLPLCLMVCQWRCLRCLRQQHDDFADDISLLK
Compound,"IC50 [1, 3] [nM]","IC50 [2, 4] [nM]","IC50 [1, 5] [nM]","IC50 [2, 6] [nM]","IC50 [2, 7] [nM]"
"CC(Cc1cc2cc(-c3ccccc3C(=O)C3CCCCC3)ccc2nc1N)C(=O)NC1CCOC(C)(C)C1 (centres unmarked) [Example 147, 3-(2-amino-6-(2-(cyclohexylcarbonyl)phenyl)-3-quinolinyl)-N-(2,2-dimethyltetrahydro-2H-pyran-4-yl)-2-methylpropanamide]",< 500,< 500,,,
"CC(Cc1cc2cc(-c3ccc(F)cc3Cl)ccc2nc1N)C(=O)NC1CCOC(C)(C)C1 (centres unmarked) [Example 166, 3-(2-amino-6-(2-chloro-4-fluorophenyl)-3-quinolinyl)-N-(2,2-dimethyltetrahydro-2H-pyran-4-yl)-2-methylpropanamide]",< 500,1000 to 5000,,,
"CC(Cc1cc2cc(-c3cccc(Cl)c3)ccc2nc1N)C(=O)NC1CCOC2(CCC2)C1 (centres unmarked) [Example 11, 3-(2-amino-6-(3-chlorophenyl)-3-quinolinyl)-2-methyl-N-(5-oxaspiro[3,5]non-8-yl)propanamide]",< 500,< 500,< 50,,
"Cc1ccccc1-c1ccc2nc(N)c(CCC(=O)NCc3nccs3)cc2c1 [Example 63, 3-(2-amino-6-o-tolylquinolin-3-yl)-N-(thiazol-2-ylmethyl)propanamide]",< 500,1000 to 5000,,,
"Cc1ccccc1-c1ccc2nc(N)c(CCC(=O)NCc3ccn(C)n3)cc2c1 [Example 54, 3-(2-amino-6-o-tolylquinolin-3-yl)-N-((1-methyl-1H-pyrazol-3-yl)methyl)propanamide]",1000 to 5000,> 5000,,,
"CC(Cc1cc2cc(-c3cccc(Cl)c3Cl)ccc2nc1N)C(=O)NC1CCOC2(CCC2)C1 (centres unmarked) [Example 161, 3-(2-amino-6-(2,3-dichlorophenyl)quinolin-3-yl)-2-methyl-N-(5-oxaspiro[3.5]nonan-8-yl)propanamide]",< 500,< 500,,,
"Cc1ccccc1-c1cc2cc(CCC(=O)NCC3CCCCC3)c(N)nc2cc1C [Example 95, 3-(2-amino-7-methyl-6-(2-methylphenyl)-3-quinolinyl)-N-(cyclohexylmethyl)propanamide]",< 500,> 5000,,,
"CC(Cc1cc2cc(-c3ccccn3)ccc2nc1N)C(=O)NCCC(C)(C)C (centres unmarked) [Example 122, 3-(2-amino-6-(pyridin-2-yl)quinolin-3-yl)-N-(3,3-dimethylbutyl)-2-methylpropanamide]",< 500,500 to 1000,,,
"Cc1ccccc1-c1ccc2nc(N)c(C[C@@H](C)C(=O)NCc3cccnn3)cc2c1 [Example 81, (R)-3-(2-amino-6-o-tolylquinolin-3-yl)-2-methyl-N-(pyridazin-3-ylmethyl)propanamide]",< 500,500 to 1000,< 50,,
"Cc1cccnc1-c1ccc2nc(N)c(CC(C)C(=O)NCCC3CCCO3)cc2c1 (centres unmarked) [Example 113, 3-(2-amino-6-(3-methylpyridin-2-yl)quinolin-3-yl)-2-methyl-N-(2-(tetrahydrofuran-2-yl)ethyl)propanamide]",500 to 1000,1000 to 5000,,,
"Cc1ccccc1-c1ccc2nc(N)c(CC(C)C(=O)NC3CCOC4(CCC4)C3)cc2c1 [Example 170, (2R)-3-(2-amino-6-(2-methylphenyl)-3-quinolinyl)-2-methyl-N-(5-oxaspiro[35]non-8-yl)propanamide]",< 500,< 500,,,
"CC(Cc1cc2cc(-c3ccccc3CN(C)C)ccc2nc1N)C(=O)NCC1CCCCC1 (centres unmarked) [Example 108, 3-(2-amino-6-(2-((dimethylamino)methyl)phenyl)quinolin-3-yl)-N-(cyclohexylmethyl)-2-methylpropanamide]",< 500,< 500,,< 100,
"Cc1cccnc1-c1ccc2nc(N)c(CC(C)C(=O)NCCC(C)C)cc2c1 (centres unmarked) [Example 109, 3-(2-amino-6-(3-methylpyridin-2-yl)quinolin-3-yl)-N-isopentyl-2-methylpropanamide]",< 500,< 500,,,
"COCC1CC1c1ccc2nc(N)c(CC(C)C(=O)NCCC(C)(C)C)cc2c1 (centres unmarked) [Example 119, 3-(2-amino-6-(2-(methoxymethyl)cyclopropyl)quinolin-3-yl)-N-(3,3-dimethylbutyl)-2-methylpropanamide]",> 5000,> 5000,,,
"CC(C)(C)CCNC(=O)CCc1cc2cc(-c3ccccc3C(=O)N3CCCC3)ccc2nc1N [Example 165, 3-(2-amino-6-(2-(1-pyrrolidinylcarbonyl)phenyl)-3-quinolinyl)-N-(3,3-dimethylbutyl)propanamide]",< 500,1000 to 5000,,,
3-(3-amino-7-o-tolylnaphthalen-2-yl)-N-((R)-1-(2-fluorophenyl)ethyl)propanamide [Example 55],< 500,,,,1000 to 5000
"CC(Cc1cc2cc(-c3ccc(Cl)cc3)ccc2nc1N)C(=O)NC1CCOC(C)(C)C1 (centres unmarked) [Example 168, 3-(2-amino-6-(4-chlorophenyl)-3-quinolinyl)-N-(2,2-dimethyltetrahydro-2H-pyran-4-yl)-2-methylpropanamide]",< 500,< 500,,,
"COc1ccccc1C(C)NC(=O)CCc1cc2cc(-c3ccccc3C)ccc2nc1N (centres unmarked) [Example 105, 3-(2-amino-6-o-tolylquinolin-3-yl)-N-(1-(2-methoxyphenyl)ethyl)propanamide]",< 500,1000 to 5000,,,
"CC(=O)c1ccccc1-c1ccc2nc(N)c(CC(C)C(=O)Nc3ccccc3)cc2c1 (centres unmarked) [Example 152, 3-(6-(2-acetylphenyl)-2-aminoquinolin-3-yl)-2-methyl-N-phenylpropanamide]",< 500,< 500,,,
"CC(Cc1cc2cc(-c3cccc(Cl)c3)ccc2nc1N)C(=O)NC1CCOC(C)(C)C1 (centres unmarked) [Example 169, 3-(2-amino-6-(3-chlorophenyl)-3-quinolinyl)-N-(2,2-dimethyltetrahydro-2H-pyran-4-yl)-2-methylpropanamide]",< 500,< 500,,< 100,
"Cc1cccnc1-c1ccc2nc(N)c(CCC(=O)N[C@H](C)c3cccnc3)cc2c1 [Example 132, (R)-3-(2-amino-6-(3-methylpyridin-2-yl)quinolin-3-yl)-N-(1-(pyridin-3-yl)ethyl)propanamide]",1000 to 5000,> 5000,,,
"Cc1cccc(C(=O)N2CCCC2)c1-c1ccc2nc(N)c(CC(C)C(=O)NCc3ccccn3)cc2c1 (centres unmarked) [Example 149, 3-(2-amino-6-(2-methyl-6-(pyrrolidine-1-carbonyl)phenyl)quinolin-3-yl)-2-methyl-N-(pyridin-2-ylmethyl)propanamide]",< 500,< 500,,,
"Cc1ccccc1-c1ccc2nc(N)c(CCC(=O)NCC3CCCCC3)nc2c1 [Example 140, 3-(3-amino-7-(2-methylphenyl)-2-quinoxalinyl)-N-(cyclohexylmethyl)propanamide]",< 500,1000 to 5000,,,
"Cc1ccccc1-c1ccc2nc(N)c(C[C@@H](C)C(=O)NCc3ncccn3)cc2c1 [Example 85, (R)-3-(2-amino-6-o-tolylquinolin-3-yl)-2-methyl-N-(pyrimidin-2-ylmethyl)propanamide]",< 500,< 500,,,
3-(3-amino-7-o-tolylnaphthalen-2-yl)-N-(1-phenylethyl)propanamide [Example 30],< 500,,,,1000 to 5000
"3-(3-amino-7-o-tolylnaphthalen-2-yl)-N-(6,7-dihydro-5H-cyclopenta[b]pyridin-7-yl)-2-methylpropanamide [Example 73]",< 500,,,,1000 to 5000
